Measurements taken from patent US20260028354A1, “TETRAHYDRONAPHTHALENE DERIVATIVES AS ESTROGEN RECEPTOR DEGRADERS” (REGENT OF THE UNIVERSITY OF MICHIGAN, priority 2022, published 2026).
Like-named read-outs stand apart in the source and are kept apart here.

Experiments:
ER = ER (Homo sapiens (Human), UniProt P03372); assay: In-cell western blot analysis of ER for "B" compounds; type: cell-based; details: 16 hours, read-out: ICW DC50
Summary of the method: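 ER levels given as a percentage of untreated/DMSO-treated wells (100%). Detection used primary antibodies for 2 h at room temperature followed by 680 and 800 nm fluorescent secondaries at 1:1000 for 1 h, read by LI-COR imaging.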

[1] = Cell growth assay (WST-8) for "B" compounds; type: cell-based; details: read-out: Cell growth Inhibition in T47D cell line IC50
Summary of the method: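 Four-day compound exposure of cells plated at 1500/well the day before. Read-out is WST-8 (10%, 2.5 h, 37 °C) absorbance at 450 nm, normalized to vehicle control over three independent repeats.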

Chain of ER (P03372 whole entry): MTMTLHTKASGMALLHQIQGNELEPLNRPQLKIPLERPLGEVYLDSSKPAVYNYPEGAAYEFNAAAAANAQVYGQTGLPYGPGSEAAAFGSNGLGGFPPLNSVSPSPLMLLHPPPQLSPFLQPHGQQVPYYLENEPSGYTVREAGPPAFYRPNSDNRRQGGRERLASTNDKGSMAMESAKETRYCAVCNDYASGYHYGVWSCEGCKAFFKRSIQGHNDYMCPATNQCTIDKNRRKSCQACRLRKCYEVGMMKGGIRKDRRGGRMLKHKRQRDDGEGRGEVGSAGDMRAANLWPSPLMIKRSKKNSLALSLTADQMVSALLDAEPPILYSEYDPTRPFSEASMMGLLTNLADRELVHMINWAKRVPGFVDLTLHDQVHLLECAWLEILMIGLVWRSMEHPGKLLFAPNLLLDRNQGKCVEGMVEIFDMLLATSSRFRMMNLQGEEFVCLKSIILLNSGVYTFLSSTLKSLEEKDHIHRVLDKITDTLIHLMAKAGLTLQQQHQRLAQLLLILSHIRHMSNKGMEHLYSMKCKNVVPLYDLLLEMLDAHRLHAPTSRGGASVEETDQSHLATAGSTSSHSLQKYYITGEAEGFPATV

| Structure (SMILES) | DC50 (ER) [µM] | IC50 ([1]; T47D, T47D cell line) [µM] | IC50 ([1]; T47D cell line) [µM] | IC50 ([1]; T47D) [µM] |
| --- | --- | --- | --- | --- |
| O=C1CCC(N2Cc3c(ccc4c3OC[C@H]3CN(C(=O)CN5CC(Nc6ccc([C@@H]7c8ccc(O)cc8CC[C@@H]7c7ccccc7)cc6)C5)CCN43)C2=O)C(=O)N1 (stereo partly drawn) [Compound B250, 3-((R)-7-(2-(3-((4-((1R,2S)-6-hydroxy-2-phenyl-1,2,3,4-tetrahydronaphthalen-1-yl)phenyl)amino)azetidin-1-yl)acetyl)-1-oxo-1,3,5,5a,6,7,8,9-octahydro-2H-pyrazino[1′,2′:4,5][1,4]oxazino[2,3-e]isoindol-2-yl)piperidine-2,6-dione] | 0.01 to 0.1 | < 0.001 | – | – |
| O=C1CCC(N2Cc3cc4c(cc3C2=O)CN(CC2COC3(CCN(c5ccc([C@@H]6c7ccc(O)cc7CC[C@@H]6c6ccccc6)cc5)CC3)C2)C4)C(=O)N1 (stereo partly drawn) [Compound B352, 3-(6-((8-(4-((1R,2S)-6-hydroxy-2-phenyl-1,2,3,4-tetrahydronaphthalcn-1-yl)phcnyl)-1-oxa-8-azaspiro[4.5]decan-3-yl)methyl)-1-oxo-3,5,6,7-tetrahydropyrrolo[3,4-f]isoindol-2(1H)-yl)piperidine-2,6-dione] | 0.01 to 0.1 | – | 0.001 to 0.01 | – |
| O=C1CCC(N2Cc3cc4c(cc3C2=O)OC[C@@H]2CN(C(=O)CN3CC(Oc5ccc([C@@H]6c7ccc(O)cc7CC[C@@H]6c6ccccc6)cc5)C3)CCN42)C(=O)N1 (stereo partly drawn) [Compound B151, 3-((S)-3-(2-(3-(4-((1R,2S)-6-hydroxy-2-phenyl-1,2,3,4-tetrahydronaphthalen-1-yl)phenoxy)azetidin-1-yl)acetyl)-8-oxo-1,2,3,4,4a,5,8,10-octahydro-9H-pyrazino[1′,2′:4,5][1,4]oxazino[2,3-f]isoindol-9-yl)piperidine-2,6-dione] | < 0.01 | < 0.001 | – | – |
| O=C1CCC(N2Cc3cc4c(cc3C2=O)OC[C@@H]2CN(CC(=O)N3CC5(C3)CN(c3ccc([C@@H]6c7ccc(O)cc7CC[C@@H]6c6ccccc6)cc3)C5)CCN42)C(=O)N1 (stereo partly drawn) [Compound B208, 3-((S)-3-(2-(6-(4-((1R,2S)-6-hydroxy-2-phenyl-1,2,3,4-tetrahydronaphthalen-1-yl)phenyl)-2,6-diazaspiro[3.3]heptan-2-yl)-2-oxoethyl)-8-oxo-1,2,3,4,4a,5,8,10-octahydro-9H-pyrazino[1′,2′:4,5][1,4]oxazino[2,3-f]isoindol-9-yl)piperidine-2,6-dione] | < 0.01 | < 0.001 | – | – |
| O=C1CCC(N2Cc3c(ccc4c3OCC43CCN(CC4COC5(CCN(c6ccc([C@@H]7c8ccc(O)cc8CC[C@@H]7c7ccccc7)cc6)CC5)O4)CC3)C2=O)C(=O)N1 (stereo partly drawn) [Compound B350, 3-(1′-((8-(4-((1R,2S)-6-hydroxy-2-phenyl-1,2,3,4-tetrahydronaphthalen-1-yl)phenyl)-1,4-dioxa-8-azaspiro[4.5]decan-2-yl)methyl)-6-oxo-6,8-dihydro-2H,7H-spiro[furo[2,3-e]isoindole-3,4′-piperidin]-7-yl)piperidine-2,6-dione] | 0.01 to 0.1 | – | – | > 0.01 |
| O=C1CCC(N2Cc3cc4c(cc3C2=O)OC[C@@H]2CN(CC(=O)N3CC(Oc5ccc([C@@H]6c7ccc(O)cc7CC[C@@H]6c6ccccc6)cc5)C3)CCN42)C(=O)N1 (stereo partly drawn) [Compound B150, 3-((S)-3-(2-(3-(4-((1R,2S)-6-hydroxy-2-phenyl-1,2,3,4-tetrahydronaphthalen-1-yl)phenoxy)azetidin-1-yl)-2-oxoethyl)-8-oxo-1,2,3,4,4a,5,8,10-octahydro-9H-pyrazino[1′,2′:4,5][1,4]oxazino[2,3-f]isoindol-9-yl)piperidine-2,6-dione] | < 0.01 | < 0.001 | – | – |
| COc1c2c(cc3c1CN(C1CCC(=O)NC1=O)C3=O)CN(C(=O)CN1CCC3(CC1)CCN(c1ccc([C@@H]4c5ccc(O)cc5CC[C@@H]4c4ccccc4)cc1)CC3)C2 (stereo partly drawn) [Compound B210, 3-(6-(2-(9-(4-((1R,2S)-6-hydroxy-2-phenyl-1,2,3,4-tetrahydronaphthalen-1-yl)phenyl)-3,9-diazaspiro[5.5]undecan-3-yl)acetyl)-4-methoxy-1-oxo-3,5,6,7-tetrahydropyrrolo[3,4-f]isoindol-2(1H)-yl)piperidine-2,6-dione] | < 0.01 | < 0.001 | – | – |
| O=C1CC[C@H](NC(=O)c2ccc3c(n2)OC[C@H]2CN(CC4COC5(CCN(c6ccc([C@@H]7c8ccc(O)cc8CC[C@@H]7c7ccccc7)cc6)CC5)C4)CCN32)C(=O)N1 (stereo partly drawn) [Compound B236, (4aR)-N-((S)-2,6-dioxopiperidin-3-yl)-3-((8-(4-((1R,2S)-6-hydroxy-2-phenyl-1,2,3,4-tetrahydronaphthalen-1-yl)phenyl)-1-oxa-8-azaspiro[4.5]decan-3-yl)methyl)-1,2,3,4,4a,5-hexahydropyrazino[1,2-d]pyrido[2,3-b][1,4]oxazine-8-carboxamide] | 0.01 to 0.1 | < 0.001 | – | – |
| O=C1CC[C@H](NC(=O)c2ccc3c(n2)OC[C@H]2CN(CC4CCC5(C4)CN(c4ccc([C@@H]6c7ccc(O)cc7CC[C@@H]6c6ccccc6)cc4)C5)CCN32)C(=O)N1 (stereo partly drawn) [Compound B360, (4aR)-N-((S)-2,6-dioxopiperidin-3-yl)-3-((2-(4-((1R,2S)-6-hydroxy-2-phenyl-1,2,3,4-tetrahydronaphthalen-1-yl)phenyl)-2-azaspiro[3.4]octan-6-yl)methyl)-1,2,3,4,4a,5-hexahydropyrazino[1,2-d]pyrido[2,3-b][1,4]oxazine-8-carboxamide] | > 0.1 | > 0.01 | – | – |
| COc1c2c(cc3c1CN(C1CCC(=O)NC1=O)C3=O)CN(CC(=O)N1CCC3(CC1)CCN(c1ccc([C@@H]4c5ccc(O)cc5CC[C@@H]4c4ccccc4)cc1)CC3)C2 (stereo partly drawn) [Compound B203, 3-(6-(2-(9-(4-((1R,2S)-6-hydroxy-2-phenyl-1,2,3,4-tetrahydronaphthalen-1-yl)phenyl)-3,9-diazaspiro[5.5]undecan-3-yl)-2-oxoethyl)-4-methoxy-1-oxo-3,5,6,7-tetrahydropyrrolo[3,4-f]isoindol-2(1H)-yl)piperidine-2,6-dione] | < 0.01 | < 0.001 | – | – |

More lines, main results first:

| DC50 (ER) [µM] | Structure (SMILES) | IC50 ([1]; T47D, T47D cell line) [µM] | IC50 ([1]; T47D cell line) [µM] | IC50 ([1]; T47D) [µM] |
| --- | --- | --- | --- | --- |
| > 0.1 | O=C1CCC(N2C(=O)c3cc4c(cc3C2=O)N2C[C@@H](NCC3CC5(CCN(c6ccc([C@@H]7c8ccc(O)cc8CC[C@@H]7c7ccccc7)cc6)CC5)C3)C[C@H]2CO4)C(=O)N1 (stereo partly drawn) [Compound B329, (2S,3aS)-8-(2,6-dioxopiperidin-3-yl)-2-(((7-(4-((1R,2S)-6-hydroxy-2-phenyl-1,2,3,4-tetrahydronaphthalen-1-yl)phenyl)-7-azaspiro[3.5]nonan-2-yl)methyl)amino)-2,3,3a,4-tetrahydro-1H,7H-pyrrolo[1′,2′:4,5][1,4]oxazino[2,3-f]isoindole-7,9(8H)-dione] | > 0.01 | – | – |
| > 0.1 | CN(C(=O)c1ccc2c(c1)OC[C@@H]1CN(CC3CC4(CCN(c5ccc([C@@H]6c7ccc(O)cc7CC[C@@H]6c6ccccc6)cc5)CC4)C3)CCN21)C1CCC(=O)NC1=O (stereo partly drawn) [Compound B312, (4aS)-N-(2,6-dioxopiperidin-3-yl)-3-((7-(4-((1R,2S)-6-hydroxy-2-phenyl-1,2,3,4-tetrahydronaphthalen-1-yl)phenyl)-7-azaspiro[3.5]nonan-2-yl)methyl)-N-methyl-1,2,3,4,4a,5-hexahydrobenzo[b]pyrazino[1,2-d][1,4]oxazine-8-carboxamide] | < 0.001 | – | – |
| 0.01 to 0.1 | O=C1CCC(N2Cc3cc4c(cc3C2=O)OC[C@@H]2CN(CC(=O)N3CCC5(CC3)CCN(c3ccc([C@@H]6c7ccc(O)cc7CC[C@@H]6c6ccccc6)cc3)CC5)CCN42)C(=O)N1 (stereo partly drawn) [Compound B147, 3-((S)-3-(2-(9-(4-((1R,2S)-6-hydroxy-2-phenyl-1,2,3,4-tetrahydronaphthalen-1-yl)phenyl)-3,9-diazaspiro[5.5]undecan-3-yl)-2-oxoethyl)-8-oxo-1,2,3,4,4a,5,8,10-octahydro-9H-pyrazino[1′,2′:4,5][1,4]oxazino[2,3-f]isoindol-9-yl)piperidine-2,6-dione] | 0.001 to 0.01 | – | – |
| < 0.01 | O=C1CCC(N2Cc3cc4c(cc3C2=O)OC[C@@H]2CN(CC(=O)N3CCC5(C3)CN(c3ccc([C@@H]6c7ccc(O)cc7CC[C@@H]6c6ccccc6)cc3)C5)CCN42)C(=O)N1 (stereo partly drawn) [Compound B152, 3-((S)-3-(2-(2-(4-((1R,2S)-6-hydroxy-2-phenyl-1,2,3,4-tetrahydronaphthalen-1-yl)phenyl)-2,6-diazaspiro[3.4]octan-6-yl)-2-oxoethyl)-8-oxo-1,2,3,4,4a,5,8,10-octahydro-9H-pyrazino[1′,2′:4,5][1,4]oxazino[2,3-f]isoindol-9-yl)piperidine-2,6-dione] | < 0.001 | – | – |
| 0.01 to 0.1 | O=C1CCC(N2C(=O)c3cc4c(cc3C2=O)CN(CC2COC3(CCN(c5ccc([C@@H]6c7ccc(O)cc7CC[C@@H]6c6ccccc6)cc5)CC3)OC2)C4)C(=O)N1 (stereo partly drawn) [Compound B338, 2-(2,6-dioxopiperidin-3-yl)-6-((9-(4-((1R,2S)-6-hydroxy-2-phenyl-1,2,3,4-tetrahydronaphthalen-1-yl)phenyl)-1,5-dioxa-9-azaspiro[5.5]undecan-3-yl)methyl)-6,7-dihydropyrrolo[3,4-f]isoindole-1,3(2H,5H)-dione] | 0.001 to 0.01 | – | – |
| < 0.01 | O=C1CCC(N2Cc3cc4c(cc3C2=O)OC[C@@H]2CN(CC3COC5(CCN(c6ccc([C@@H]7c8ccc(O)cc8CC[C@@H]7c7ccccc7)cc6)CC5)OC3)CCN42)C(=O)N1 (stereo partly drawn) [Compound B242, 3-((S)-3-((9-(4-((1R,2S)-6-hydroxy-2-phenyl-1,2,3,4-tetrahydronaphthalen-1-yl)phenyl)-1,5-dioxa-9-azaspiro[5.5]undecan-3-yl)methyl)-8-oxo-1,2,3,4,4a,5,8,10-octahydro-9H-pyrazino[1′,2′:4,5][1,4]oxazino[2,3-f]isoindol-9-yl)piperidine-2,6-dione] | < 0.001 | – | – |
